Source: PMC3265452 (PLoS Neglected Tropical Diseases, 2012)
Structures can show the parent of a compound that is named as a salt.

Biological target: AaDOP2 (Aedes aegypti, UniProt H6D5H2)
Assay: AaDOP2 antagonist screen of the LOPAC1280 library (HEK-CRELuc-Aadop2 cells, luminescence)
Assay type: cell-based
Conditions: not given

Chain of AaDOP2 (H6D5H2 1-476): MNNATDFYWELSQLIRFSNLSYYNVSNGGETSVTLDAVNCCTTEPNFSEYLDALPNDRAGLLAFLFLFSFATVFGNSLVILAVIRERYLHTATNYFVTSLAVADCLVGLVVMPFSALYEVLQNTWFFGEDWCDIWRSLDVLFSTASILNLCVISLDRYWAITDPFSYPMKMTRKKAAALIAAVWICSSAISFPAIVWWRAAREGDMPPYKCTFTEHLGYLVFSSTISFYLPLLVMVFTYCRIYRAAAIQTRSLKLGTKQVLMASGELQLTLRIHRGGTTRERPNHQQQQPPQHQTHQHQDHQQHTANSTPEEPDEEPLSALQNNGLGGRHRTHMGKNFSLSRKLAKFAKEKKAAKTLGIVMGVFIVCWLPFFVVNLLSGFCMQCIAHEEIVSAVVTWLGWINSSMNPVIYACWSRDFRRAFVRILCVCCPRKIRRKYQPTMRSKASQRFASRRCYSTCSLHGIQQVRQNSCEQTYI

| Molecule | Compound effect (percent receptor signaling in presence of test compound, relative lux units relative to the SCH23390 control) |
| --- | --- |
| NCCc1c[nH]c2ccc(C(N)=O)cc12.O=C(O)/C=C\C(=O)O [Compound 332, 5-Carboxamidotryptamine maleate] | 119 |
| CCCn1c(=O)c2c(ncn2C)n(CCC)c1=O [Compound 450, 1,3-Dipropyl-7-methylxanthine] | 123 |
| CCCN1C[C@H](CSC)C[C@@H]2c3cccc4[nH]cc(c34)C[C@H]21 [Compound 987, Pergolide methanesulfonate] | 53 |
| COc1ccccc1N1CCNCC1.Cl [Compound 1129, 1-(2-Methoxyphenyl)piperazine hydrochloride] | 64 |
| C[C@](N)(Cc1ccc(O)cc1)C(=O)O [Compound 802, L-alpha-Methyl-p-tyrosine] | 100 |
| CC(C)NP(=O)(NC(C)C)OP(=O)(NC(C)C)NC(C)C [Compound 1151, Tetraisopropyl pyrophosphoramide] | 111 |
| C=C[C@H]1C[N@@]2CC[C@H]1C[C@H]2[C@H](O)c1ccnc2ccc(OC)cc12 [Compound 1031, Quinine sulfate] | 79 |
| C[C@]12C=CC(=O)C=C1CC[C@H]1[C@@H]3C[C@@H](O)[C@](O)(C(=O)CO)[C@@]3(C)C[C@H](O)[C@@]12F [Compound 1190, Triamcinolone] | 108 |
| R(-)-Apocodeine hydrochloride [Compound 435] | 98 |
| CCOC(=O)C1=C[C@]2(CC)CCCN3CCc4c(n1c1ccccc41)[C@@H]32 [Compound 1254, Vinpocetine] | 148 |
| CCCCCCN(CCCCCC)C(=O)Cc1c(-c2ccc(F)cc2)[nH]c2ccccc12 [Compound 422, N,N-Dihexyl-2-(4-fluorophenyl)indole-3-acetamide] | 93 |
| C[C@@H]1C(=O)NC2=Nc3cccc(Cl)c3CN21 [Compound 1034, Quazinone] | 108 |
| Cc1cccc(C#Cc2ccccc2)n1.Cl [Compound 778, 6-Methyl-2-(phenylethynyl)pyridine hydrochloride] | 74 |
| C=C(C)[C@H]1Cc2c(ccc3c2O[C@@H]2COc4cc(OC)c(OC)cc4[C@@H]2C3=O)O1 [Compound 1056, Rotenone] | 41 |
| C[N+]1(C)[C@@H]2C[C@@H](OC(=O)[C@H](CO)c3ccccc3)C[C@H]1[C@@H]1O[C@@H]12 [Compound 1120, (-)-Scopolamine methyl bromide] | 114 |
| N#C/C(=C\c1ccc(O)c(O)c1)C(=O)Nc1ccccc1 [Compound 1171, Tyrphostin AG 494] | 83 |
| COC1=C(OC)C(=O)c2ccccc2C1=O [Compound 392, 2,3-Dimethoxy-1,4-naphthoquinone] | 45 |
| O=C(/C=C/c1ccc(O)c(O)c1)OCCc1ccccc1 [Compound 307, Caffeic acid phenethyl ester] | 147 |

| Molecule | Compound effect (percent receptor signaling in presence of test compound, relative lux units relative to the SCH23390 control) |
| --- | --- |
| CC(=O)S[C@@H]1CC2=CC(=O)CC[C@]2(C)[C@H]2CC[C@@]3(C)[C@@H](CC[C@@]34CCC(=O)O4)[C@H]12 [Compound 1099, Spironolactone] | 84 |
| C[C@@H]1O[C@H](C[N+](C)(C)C)C[C@H]1O.[Cl-] (racemic) [Compound 814, (±)-Muscarine chloride] | 104 |
| Cl.Cl.Oc1ccc2c3c1O[C@H]1c4[nH]c5c(c4C[C@@]4(O)[C@@H](C2)N(CC2CC2)CC[C@]314)C[C@@]1(O)[C@H]2Cc3ccc(O)c4c3[C@@]1(CCN2CC1CC1)[C@H]5O4 [Compound 841, nor-Binaltorphimine dihydrochloride] | 98 |
| COc1cc(CC(C)N)c(OC)cc1I.Cl (racemic) [Compound 447, (±)-DOI hydrochloride] | 86 |
| Cl.Fc1ccc(C(OCCCc2c[nH]cn2)c2ccc(F)cc2)cc1 [Compound 678, 3-(1H-Imidazol-4-yl)propyl di(p-fluorophenyl)methyl ether hydrochloride] | 52 |
| O=C(O)c1cc([N+](=O)[O-])ccc1NCCCc1ccccc1 [Compound 854, 5-Nitro-2-(3-phenylpropylamino)benzoic acid] | 99 |
| NC[C@@H]1O[C@H](O[C@H]2[C@@H](O)[C@H](O[C@@H]3[C@@H](O)[C@H](N)C[C@H](N)[C@H]3O[C@H]3O[C@H](CO)[C@@H](O)[C@H](O)[C@H]3N)O[C@@H]2CO)[C@H](N)[C@@H](O)[C@@H]1O [Compound 994, Paromomycin sulfate] | 96 |
| Oc1c2ccccc2c2c3c(cccc13)N=N2 [Compound 424, SP600125] | 101 |
| NC(=O)OCC(COC(N)=O)c1ccccc1 [Compound 509, Felbamate] | 113 |
| COc1cc2c(c(OC)c1OC)-c1ccc(OC)c(=O)cc1[C@@H](NC(C)=O)CC2 [Compound 319, Colchicine] | 131 |
| CN1CCCC1c1cccnc1.Cc1ccc(C(=O)OC(C(=O)O)C(OC(=O)c2ccc(C)cc2)C(=O)O)cc1 (stereo not drawn) [Compound 877, (+)-Nicotine (+)-di-p-toluoyl tartrate] | 80 |
| NCCNC(=O)Cc1ccc(NC(=O)Cc2ccc(Nc3ncnc4c3ncn4[C@@H]3O[C@H](CO)[C@@H](O)[C@H]3O)cc2)cc1 [Compound 122, Adenosine amine congener] | 105 |
| N=C(N)N/N=C/c1c(Cl)cccc1Cl [Compound 565, Guanabenz acetate] | 156 |
| Cn1c(=O)c2c(nc(C=Cc3cccc(Cl)c3)n2C)n(C)c1=O [Compound 344, 8-(3-Chlorostyryl)caffeine] | 91 |
| CC1=C(/C=C/C(C)=C/C=C/C(C)=C/C=C/C=C(C)/C=C/C=C(C)/C=C/C2=C(C)C(=O)[C@@H](O)CC2(C)C)C(C)(C)C[C@H](O)C1=O [Compound 103, Astaxanthin] | 106 |
| CNC1(C)C2CCC(C2)C1(C)C (centres unmarked) [Compound 805, Mecamylamine hydrochloride] | 114 |
| 2-Methylthioadenosine triphosphate tetrasodium [Compound 120] | 99 |
| N#C/C(=C\c1ccc(O)c(O)c1)C(=O)NCc1ccccc1 [Compound 1165, Tyrphostin AG 490] | 96 |

Same assay, conditions: 10 µM compound, 300 nM dopamine, 2 hr; hit = compound effect <20

| Molecule | Compound effect (percent receptor signaling in presence of test compound, relative lux units relative to the SCH23390 control) |
| --- | --- |
| CC(=O)O[C@H]1C[C@@]2(C)[C@@H](C[C@@H](O)[C@H]3[C@@]4(C)CC[C@@H](O)[C@@H](C)[C@@H]4CC[C@@]32C)/C1=C(\CCC=C(C)C)C(=O)[O-].[Na+] [Compound 510, Fusidic acid sodium] | 131% |
| Cl.Cl.NCCNS(=O)(=O)c1cccc2cnccc12 [Compound 88, H-9 dihydrochloride] | 64% |
| CCN1CCCC1CNC(=O)c1cc(S(N)(=O)=O)ccc1OC (racemic) [Compound 1113, (±)-Sulpiride] | 114% |
| NCC(O)(CS(=O)(=O)O)c1ccc(Cl)cc1 (centres unmarked) [Compound 72, 2-Hydroxysaclofen] | 110% |
| CCCCC#Cc1nc(N)c2ncn([C@@H]3O[C@H](C(=O)NCC)[C@@H](O)[C@H]3O)c2n1 [Compound 600, HE-NECA] | 99% |
| CC[C@@H]1Cc2cc(O)ccc2C2=C1c1ccc(O)cc1C[C@H]2CC (relative stereo) [Compound 423, (R,R)-cis-Diethyl tetrahydro-2,8-chrysenediol] | 40% |
| CSC(=N)N.CSC(=N)N.O=S(=O)(O)O [Compound 756, S-Methylisothiourea hemisulfate] | 99% |
| Br.CCCN(CCC)C1CCc2ccc(O)cc2C1 (racemic) [Compound 606, (±)-7-Hydroxy-DPAT hydrobromide] | 62% |
| CCN(CC)C(=O)N[C@H]1C[C@@H]2c3cccc4[nH]cc(c34)C[C@H]2N(C)C1 [Compound 1228, R(+)-Terguride] | 73% |
| Cl.Clc1cc(I)cc(Cl)c1NC1=NCCN1 [Compound 667, p-Iodoclonidine hydrochloride] | 83% |
| Cl.O=C(CCCN1CCC2(CC1)C(=O)N(CCc1ccc(N=C=S)cc1)CN2c1ccccc1)c1ccc(F)cc1 [Compound 879, N-(p-Isothiocyanatophenethyl)spiperone hydrochloride] | 83% |
